Measured values as given in patent US11414488B2, “Methods for treating cancer” (BicycleRD Limited, priority 2019, dated 2022).
Read-outs that look alike come from different tables or passages of the source.

What was measured:
[1] = Tolerability and deaths in E0771 study (Example 3); type: in vivo, Mouse; settings: single agent paclitaxel 15 mg/kg; considered non-specific deaths, treatment not completely ruled out
Description: Animals euthanized during the same period for other causes (sampling, accidental trauma, etc.) are excluded from this calculation. […] (Group toxicity parameter)

[2] = test system: orthotopic E0771 murine mammary carcinoma; settings: for anti-tumor activity (in words): BT17BDC-18 at 6.2 mg/kg or 4.8 mg/kg, anti-mPD-1 10 mg/kg, paclitaxel 15 mg/kg
Description: The purpose of this study was to evaluate the anti-cancer activity of BT17BDC-18 alone and in combination with anti-mPD-1 against established orthotopic E0771 murine mammary carcinoma in female C57BL/6 mice.
All mice were sorted into study groups based on caliper estimation of tumor burden. The mice were distributed to ensure that the mean tumor burden for all groups was within 10% of the overall mean tumor burden for the study population.
All animals weighed at least 16.6 g at the initiation of therapy. […] A tumor burden of 2000 mm^3, was chosen for evaluation of efficacy by time to progression (time to euthanasia/death).
Treatment-related weight change—This is a group endpoint calculated from the group mean body weights. It is calculated differently for specific circumstances as follows: • If (at any point between the first day of treatment and two weeks after the final treatment) the mean group body weight decreases by more than 2%, the maximum weight loss is reported, even if body weight eventually rebounded during treatment to a net weight gain. […] To assess the contribution of test agents to weight loss, Net Treatment Related Weight Loss may be used. […] When this occurs, net weight loss is calculated by normalizing for tumor burden. We do this by constructing a plot of control group mean tumor burden vs control group mean weight loss, using all of the weight data available for the control group. […] This value is then subtracted from the mean weight loss in the treated group to generate the net weight loss for the treated group on that day. The calculated net weight loss is then used to estimate the tolerance to the drug.
Time to Progression (TP)—Time to progression is a surrogate for lifespan, time on study, or lifespan. It is used for studies that involve IACUC mandated euthanasia of animals for excessive tumor burdens (even if the animals otherwise appear normal). The mandated tumor burden limit is tumor model dependent. TP data is analyzed by Kaplan Meier methods just as traditional life span data. The Time to Progression for an individual animal is the number of days between initiation of treatment and the death or required euthanasia of that animal. […] This puts all animals on the same footing, and removes the impact of possibly delayed euthanasia (which may occur for sampling, or weekends and holidays). Animals euthanized for scheduled sampling or other causes unrelated to disease progression or therapy are excluded from this calculation. The median Time to Progression for a group is used to calculate the % Increase in Time to Progression (% ITP).
% Increase in Time to Progression (% ITP)—% ITP is a group endpoint.
Complete Regression (CR)—An animal is credited a complete regression if its tumor burden is reduced to an immeasurable volume at any point after the first treatment. Our convention is to record any tumor measurement less than 5 mm as a “0.” The CR must be maintained for at least 2 consecutive measurements. This is in keeping with the convention of the NCI and reflects the inherent and unacceptably high mechanical error in such measurements in addition to the uncertain biology of what is measured at those small sizes.

[3] = BT17BDC-18 6.2 mg/kg IV Q7Dx4, anti-mPD-1 10 mg/kg IP, paclitaxel 15 mg/kg IV Q7Dx4, alone or combined

**Q.** Which deaths in group [1] does the source give for `CC(=O)O[C@H]1C(=O)[C@@]2(C)[C@H]([C@H](OC(=O)c3ccccc3)[C@]3(O)C[C@H](OC(=O)[C@H](O)[C@@H](NC(=O)c4ccccc4)c4ccccc4)C(C)=C1C3(C)C)[C@]1(OC(C)=O)CO[C@@H]1C[C@@H]2O` [Paclitaxel] here?
**A.** two

**Q.** And the “% increase in time to progression” value [2, 3]?
**A.** 17.9%

**Q.** What about the “Day 36 median ΔT/ΔC” value [2, 3] of the same molecule?
**A.** 94%

**Q.** And the “increase in time to progression” value [2, 3]?
**A.** 4.0 days

**Q.** What about the “anti-tumor activity (in words)” value [2] of the same molecule?
**A.** Poor response

**Q.** And the “anti-tumor activity (in words)” value ([2]; listed as paclitaxel)?
**A.** mildly active
